Experimental findings from patent publication US9346769B2, “Tetrazolones as inhibitors of fatty acid synthase” (Infinity Pharmaceuticals, Inc., priority 2010, dated 2016) are described below.

In the assay the target is T1, human FASN (Homo sapiens, UniProt P49327).
T1 construct: was purified from SKBR3 cells using procedures modified from those in Jayakumar et al; endogenous in cells; host or cells: SKBR3 human breast cancer cells (ATCC); Endogenous enzyme purified by ammonium sulfate precipitation and a mono Q column
Kind of assay: FASN NADPH Consumption Assay. Type of assay: biochemical. The settings on record: human FASN purified from SKBR3 cells; starred symbols. As to the method:
Human FASN protein (SEQ ID NO. 1) was purified from SKBR3 cells using procedures modified from those in Jayakumar et al. PNAS 1995, 92:8695-8699. SKBR3 cells were obtained from ATCC and grown in DMEM high glucose medium supplemented with 10% FBS, 1 μg/mL bovine pancreas insulin, 100 U/mL penicillin and 100 µg/mL streptomycin. The confluent cells were trypsinized and washed three times with PBS buffer before frozen in liquid N2 and stored at −80° C. Frozen cells were thawed on ice and resuspended in lysis buffer (25 mM Tris-HCl, pH 7.0, 15 mM NaCl, 1 mM EDTA, and 1 mM DTT) with protease inhibitors. The cells were lysed by sonication, and the cell debris was removed by centrifugation at 20,000 rpm for 30 min. To the supernatant, neutralized saturated ammonium sulfate solution was added to a final concentration of 35%. The solution was left on ice for 1 hr, and the precipitated proteins were harvested by centrifugation at 20,000 rpm for 30 min. The proteins were redissolved in lysis buffer without NaCl and loaded on a mono Q column. Bound proteins were eluted with a linear gradient of NaCl in lysis buffer. Each fraction was analyzed by SDS-PAGE and FASN NADPH consumption assay. The fractions containing FASN were pooled and concentrated to 2-3 mg/mL. Glycerol was added to 20%, and the protein was frozen in liquid N2 and stored at −80° C.
All chemicals were purchased from Sigma (St. Louis, Mo.). The procedures of NADPH consumption assay were similar to those described in Cox et al., PNAS 1983, 80:4233-4237. On a 96-well polypropylene microplate, dilution series (typical concentrations 60 nM-1.0 mM) of test compounds were prepared in DMSO, of which 4.0 μL each was transferred to a black polystyrene assay microplate and mixed with 36 μL FASN assay buffer (50 mM potassium phosphate, pH 7.0, 1.0 mM EDTA, 0.01% NP-40) plus 5.0 mM fresh DTT. FASN protein (40 μL 150 nM FASN) was added per well, and the microplate was incubated at 37° C. for 30 min. Enzyme activity measurement was initiated by addition of 20 μL 5× substrate mixture to final concentrations of 60 nM FASN, 2.4 nM-40 μM compound, 0.2 mM NADPH, 50 μM butyryl-CoA, 0.5 mM malonyl-CoA in 100 μL assay buffer plus 5.0 mM DTT and 4.0% DMSO. NADPH consumption was monitored kinetically by fluorescence (λEx=340 nm, λEm=460 nm) on an EnVision 2100 multilabel plate reader (Perkin Elmer, Waltham, Mass.). FASN enzyme activity (slope) in the presence of 4% DMSO was used as maximum control, whereas background (minimum control) was measured by omission of malonyl-CoA in the substrate mixture. Inhibition curves were fitted by a logistic function to yield IC50 values:
Compounds were assayed as inhibitors of human FASN using the above-described FASN Scintillation Proximity Flashplate Assay (IC50; nM) or FASN NADPH Consumption Assay (*) (IC50; nM). The corresponding activity of the isolated compound is also provided along with the measured mass (ES^+).

One may read the IC50 as the concentration at which inhibition is half-maximal.

T1 sequence (P49327 whole entry): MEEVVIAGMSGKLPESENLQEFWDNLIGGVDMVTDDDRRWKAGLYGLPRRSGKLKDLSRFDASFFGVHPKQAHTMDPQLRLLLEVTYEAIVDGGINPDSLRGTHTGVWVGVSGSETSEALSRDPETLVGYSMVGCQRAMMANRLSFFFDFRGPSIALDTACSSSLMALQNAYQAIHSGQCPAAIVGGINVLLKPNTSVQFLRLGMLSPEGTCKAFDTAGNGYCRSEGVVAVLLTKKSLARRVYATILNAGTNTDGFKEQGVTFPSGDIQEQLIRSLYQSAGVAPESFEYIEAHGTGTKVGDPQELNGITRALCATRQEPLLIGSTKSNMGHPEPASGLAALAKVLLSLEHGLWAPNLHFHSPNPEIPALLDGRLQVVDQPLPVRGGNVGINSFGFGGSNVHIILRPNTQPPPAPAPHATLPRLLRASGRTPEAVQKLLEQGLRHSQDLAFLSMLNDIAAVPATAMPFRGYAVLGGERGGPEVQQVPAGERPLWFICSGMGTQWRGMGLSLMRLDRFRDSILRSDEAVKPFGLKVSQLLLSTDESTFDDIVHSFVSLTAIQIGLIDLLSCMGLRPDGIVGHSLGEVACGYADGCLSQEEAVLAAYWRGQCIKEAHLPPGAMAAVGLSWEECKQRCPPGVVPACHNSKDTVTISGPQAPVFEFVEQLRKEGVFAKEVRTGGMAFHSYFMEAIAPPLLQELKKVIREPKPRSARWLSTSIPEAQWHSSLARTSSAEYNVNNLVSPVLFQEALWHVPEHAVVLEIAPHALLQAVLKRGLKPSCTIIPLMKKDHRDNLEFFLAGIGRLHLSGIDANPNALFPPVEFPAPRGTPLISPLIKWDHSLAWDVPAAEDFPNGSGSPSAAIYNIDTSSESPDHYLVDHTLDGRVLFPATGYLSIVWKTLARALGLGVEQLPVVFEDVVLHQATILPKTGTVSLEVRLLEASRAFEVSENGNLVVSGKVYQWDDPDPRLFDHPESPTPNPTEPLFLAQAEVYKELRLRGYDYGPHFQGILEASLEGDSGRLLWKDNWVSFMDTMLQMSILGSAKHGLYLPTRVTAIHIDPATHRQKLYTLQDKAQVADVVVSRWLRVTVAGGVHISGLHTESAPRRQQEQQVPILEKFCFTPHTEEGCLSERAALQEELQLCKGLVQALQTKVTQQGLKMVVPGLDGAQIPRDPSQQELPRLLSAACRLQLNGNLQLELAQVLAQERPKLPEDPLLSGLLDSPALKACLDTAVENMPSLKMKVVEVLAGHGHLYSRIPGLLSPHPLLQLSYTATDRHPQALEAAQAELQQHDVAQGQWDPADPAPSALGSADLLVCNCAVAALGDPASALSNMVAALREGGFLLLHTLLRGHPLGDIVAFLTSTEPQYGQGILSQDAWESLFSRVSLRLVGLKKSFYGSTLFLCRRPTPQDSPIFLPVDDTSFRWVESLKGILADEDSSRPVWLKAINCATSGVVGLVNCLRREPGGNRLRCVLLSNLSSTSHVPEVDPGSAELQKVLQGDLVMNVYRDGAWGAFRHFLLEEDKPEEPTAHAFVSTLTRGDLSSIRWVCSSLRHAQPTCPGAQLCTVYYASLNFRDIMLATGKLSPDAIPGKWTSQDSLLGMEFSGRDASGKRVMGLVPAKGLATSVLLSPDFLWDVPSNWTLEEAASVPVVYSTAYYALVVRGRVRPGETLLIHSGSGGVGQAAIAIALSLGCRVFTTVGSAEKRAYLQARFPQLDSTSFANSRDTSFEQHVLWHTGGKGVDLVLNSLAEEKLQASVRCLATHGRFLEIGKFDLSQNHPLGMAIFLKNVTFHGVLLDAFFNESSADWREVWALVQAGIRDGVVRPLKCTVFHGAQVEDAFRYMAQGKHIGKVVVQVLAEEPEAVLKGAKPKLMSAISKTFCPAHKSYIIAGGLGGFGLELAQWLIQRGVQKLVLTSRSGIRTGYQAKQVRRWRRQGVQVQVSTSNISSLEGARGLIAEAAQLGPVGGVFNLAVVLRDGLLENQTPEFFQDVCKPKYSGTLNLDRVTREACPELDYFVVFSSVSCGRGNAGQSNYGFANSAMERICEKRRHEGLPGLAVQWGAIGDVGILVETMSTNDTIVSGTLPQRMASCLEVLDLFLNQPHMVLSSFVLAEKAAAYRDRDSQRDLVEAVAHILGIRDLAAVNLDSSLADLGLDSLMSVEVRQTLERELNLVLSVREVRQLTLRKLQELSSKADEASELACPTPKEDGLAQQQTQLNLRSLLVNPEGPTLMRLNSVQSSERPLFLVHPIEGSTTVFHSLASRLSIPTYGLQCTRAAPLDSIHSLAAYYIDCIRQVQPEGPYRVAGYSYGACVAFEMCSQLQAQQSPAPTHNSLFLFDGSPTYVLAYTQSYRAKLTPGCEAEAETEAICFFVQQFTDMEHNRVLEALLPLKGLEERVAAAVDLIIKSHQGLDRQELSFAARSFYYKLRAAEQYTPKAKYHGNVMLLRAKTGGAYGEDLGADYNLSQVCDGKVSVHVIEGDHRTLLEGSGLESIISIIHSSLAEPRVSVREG

Take `CCN(C(=O)n1nnn(-c2ccccc2)c1=O)c1ccc(C(=O)O)c(OC)c1`: the IC50 is 60 to 250 nM.

`CCN(C(=O)n1nnn(-c2ccccc2Oc2ccccc2)c1=O)c1ccccc1F`: the IC50 lay in the range of 60 to 250 nM. `O=C(N(c1ccccc1)c1ccccc1)n1nnn(-c2ccccc2Oc2ccccc2)c1=O` displayed an IC50 of 60 to 250 nM. Then `CCN(C(=O)n1nnn(-c2ccccc2-c2ccccc2)c1=O)c1ccccc1F`, with 60 to 250 nM. For `CCN(C(=O)n1nnn(-c2ccccc2OC)c1=O)c1ccc(OC)c(C(=O)O)c1` the value was 250 to 1000 nM; for `CCCCCCN(C(=O)n1nnn(-c2ccccc2OC)c1=O)c1cc(C(=O)OCc2ccccc2)ccc1OC`, 1000 to 10000 nM. Then `CCN(C(=O)n1nnn(-c2ccccc2OC)c1=O)c1ccc(C(=O)O)cc1`, with 60 to 250 nM; and `CCN(C(=O)n1nnn(-c2ccccc2OC)c1=O)c1cc(C(=O)O)ccc1OC`, with 60 to 250 nM; and `COc1ccc(C(=O)OCc2ccccc2)cc1N(CCCCc1ccccc1)C(=O)n1nnn(-c2ccccc2OC)c1=O`, with 1000 to 10000 nM. The molecule `COc1ccc(C(=O)O)cc1N(CCCCc1ccccc1)C(=O)n1nnn(-c2ccccc2OC)c1=O` displayed an IC50 of 250 to 1000 nM.

In turn, `COc1cccc(N(C)C(=O)n2nnn(-c3c(F)cccc3F)c2=O)c1` had an IC50 of 60 to 250 nM. For `O=C(N(c1ccccc1)c1ccccc1)n1nnn(-c2c(F)cccc2F)c1=O` the value was 60 to 250 nM; for `CCN(C(=O)n1nnn(-c2c(F)cccc2F)c1=O)c1ccc(Cl)cc1`, 60 to 250 nM; for `CN(C(=O)n1nnn(-c2c(F)cccc2F)c1=O)c1ccccc1Br`, 60 to 250 nM. Then `CCN(C(=O)n1nnn(-c2c(F)cccc2F)c1=O)c1c(F)cccc1Cl`, with 60 to 250 nM.

`CN(C(=O)n1nnn(-c2c(F)cccc2F)c1=O)c1ccccc1F` gave an IC50 of 60 to 250 nM. For `CN(C(=O)n1nnn(-c2c(F)cccc2F)c1=O)c1cccc(Br)c1` the value was 60 to 250 nM. For `CCN(C(=O)n1nnn(-c2c(F)cccc2F)c1=O)c1cccc(F)c1F` the value was less than 60 nM. Molecule `CCN(C(=O)n1nnn(-c2c(F)cccc2F)c1=O)c1ccc(C)cc1` had an IC50 of 60 to 250 nM.

Take `C=CCN(C(=O)n1nnn(-c2c(F)cccc2F)c1=O)c1ccccc1`: the IC50 is less than 60 nM.

`CCN(C(=O)n1nnn(-c2c(F)cccc2F)c1=O)c1cc(F)ccc1F` returned an IC50 of less than 60 nM. Regarding `CCN(C(=O)n1nnn(-c2c(F)cccc2F)c1=O)c1ccccc1C`, the IC50 fell in the range of 60 to 250 nM. For `CCN(C(=O)n1nnn(-c2c(F)cccc2F)c1=O)c1ccc(C(=O)OCc2ccccc2)cc1` the value was 60 to 250 nM; for `CN(C(=O)n1nnn(-c2c(F)cccc2F)c1=O)c1cc(F)cc(F)c1`, 60 to 250 nM; for `CCCN(C(=O)n1nnn(-c2c(F)cccc2F)c1=O)c1ccccc1`, 60 to 250 nM. For `CCN(C(=O)n1nnn(-c2c(F)cccc2F)c1=O)c1ccccc1` the value was less than 60 nM; for `CCN(C(=O)n1nnn(-c2c(F)cccc2F)c1=O)c1cccc2ccccc12`, 60 to 250 nM. In turn, `CCN(C(=O)n1nnn(-c2c(F)cccc2F)c1=O)c1ccc([N+](=O)[O-])cc1` yielded an IC50 of 60 to 250 nM. `CN(C(=O)n1nnn(-c2c(F)cccc2F)c1=O)c1ccccc1` returned an IC50 of 60 to 250 nM.

For the molecule `CCCCC#Cc1ccc(N(CC)C(=O)n2nnn(-c3c(F)cccc3F)c2=O)c(F)c1`, the IC50 is 60 to 250 nM. For `CC(C)N(C(=O)n1nnn(-c2c(F)cccc2F)c1=O)c1cccc(C(=O)OCc2ccccc2)c1` the value was less than 60 nM. For `CCN(C(=O)n1nnn(-c2c(F)cccc2F)c1=O)c1ccc(C(=O)OCc2ccccc2)c(OC)c1` the value was 60 to 250 nM; for `CCN(C(=O)n1nnn(-c2c(F)cccc2F)c1=O)c1ccc(C(=O)O)cc1`, less than 60 nM. Regarding `COc1ccc(C(=O)O)cc1N(CCCCc1ccccc1)C(=O)n1nnn(-c2c(F)cccc2F)c1=O`, the IC50 fell in the range of 60 to 250 nM. Then `CCN(C(=O)n1nnn(-c2c(F)cccc2F)c1=O)c1ccc(C(=O)NC(C)C)cc1F`, with less than 60 nM; and `CCN(C(=O)n1nnn(-c2c(F)cccc2F)c1=O)c1ccc(C#Cc2ccccc2)cc1F`, with 60 to 250 nM; and `COc1ccc(C(=O)O)cc1N(CCCc1ccccc1)C(=O)n1nnn(-c2c(F)cccc2F)c1=O`, with 60 to 250 nM.

As for `CCN(C(=O)n1nnn(-c2c(F)cccc2F)c1=O)c1ccc(N(S(C)(=O)=O)S(C)(=O)=O)cc1F`, the IC50 was less than 60 nM. Then `CN(C(=O)n1nnn(-c2c(F)cccc2F)c1=O)c1ccc(Br)cc1`, with 60 to 250 nM; and `CC(C)N(C(=O)n1nnn(-c2c(F)cccc2F)c1=O)c1ccccc1`, with 60 to 250 nM; and `CN(C(=O)n1nnn(-c2c(F)cccc2F)c1=O)c1cccc(F)c1`, with 60 to 250 nM. Then `CN(C(=O)n1nnn(-c2c(F)cccc2F)c1=O)c1ccccc1C(F)(F)F`, with 60 to 250 nM; and `CCN(C(=O)n1nnn(-c2c(F)cccc2F)c1=O)c1ccc(C#CC(C)(C)C)cc1F`, with 60 to 250 nM. For `CCN(C(=O)n1nnn(-c2c(F)cccc2F)c1=O)c1ccc(Cl)cc1Cl` the value was 60 to 250 nM; for `CN(C(=O)n1nnn(-c2c(F)cccc2F)c1=O)c1ccc(F)cc1`, 60 to 250 nM. With `CCN(C(=O)n1nnn(-c2c(F)cccc2F)c1=O)c1ccc(CCc2ccccc2)cc1F`, the IC50 fell in the range of 60 to 250 nM. Consider `CCN(C(=O)n1nnn(-c2c(F)cccc2F)c1=O)c1ccccc1OC(F)(F)F`, for which the IC50 lay in the range of 60 to 250 nM. For `CCN(C(=O)n1nnn(-c2c(F)cccc2F)c1=O)c1ccccc1-c1ccccc1` the value was 1000 to 10000 nM; for `CCCCC#Cc1ccc(N(C)C(=O)n2nnn(-c3c(F)cccc3F)c2=O)cc1`, 250 to 1000 nM. For `CN(C(=O)n1nnn(-c2c(F)cccc2F)c1=O)c1ccc(C#Cc2ccccc2)cc1` the value was 60 to 250 nM; for `CCN(C(=O)n1nnn(-c2c(F)cccc2F)c1=O)c1cccc(C)c1`, less than 60 nM.

As for `CCOC(=O)c1ccc(N(C(=O)n2nnn(-c3c(F)cccc3F)c2=O)N(C)C)cc1`, the IC50 was 60 to 250 nM.

`COc1ccccc1N(C)C(=O)n1nnn(-c2c(F)cccc2F)c1=O` had an IC50 of 250 to 1000 nM. The molecule `CCN(C(=O)n1nnn(-c2c(F)cccc2F)c1=O)c1ccc(C#CCC2CCCCC2)cc1F` yielded an IC50 of 60 to 250 nM.

Consider `CCN(C(=O)n1nnn(-c2c(F)cccc2F)c1=O)c1ccccc1[N+](=O)[O-]`, for which the IC50 is less than 60 nM.

Molecule `CCN(C(=O)n1nnn(-c2c(F)cccc2F)c1=O)c1ccc(Br)cc1F` came in with an IC50 of 60 to 250 nM. Then `CN(C(=O)n1nnn(-c2c(F)cccc2F)c1=O)c1ccccc1Cl`, with less than 60 nM; and `CCN(C(=O)n1nnn(-c2c(Cl)cccc2Cl)c1=O)c1cccc(C(=O)O)c1OC`, with 1000 to 10000 nM. Then `CCN(C(=O)n1nnn(-c2c(Cl)cccc2Cl)c1=O)c1ccc(Cl)c(C(=O)O)c1`, with 60 to 250 nM; and `CCN(C(=O)n1nnn(-c2c(Cl)cccc2Cl)c1=O)c1ccc(NS(=O)(=O)C(F)(F)F)cc1`, with 60 to 250 nM; and `CCN(C(=O)n1nnn(-c2c(Cl)cccc2Cl)c1=O)c1ccc(Cl)c(C(=O)OCc2ccccc2)c1`, with 60 to 250 nM. Then `CCN(C(=O)n1nnn(-c2c(Cl)cccc2Cl)c1=O)c1ccc(C(=O)OCc2ccc(OC)cc2)c(Cl)c1`, with 60 to 250 nM. Molecule `CCN(C(=O)n1nnn(-c2c(Cl)cccc2Cl)c1=O)c1ccccc1F` came in with an IC50 of 60 to 250 nM.

In the case of `CCN(C(=O)n1nnn(-c2c(Cl)cccc2Cl)c1=O)c1cc(C(=O)O)ccc1Cl`, the IC50 was less than 60 nM.

In turn, `CC(C)N(C(=O)n1nnn(-c2c(Cl)cccc2Cl)c1=O)c1ccccc1` had an IC50 of 250 to 1000 nM. For `CCN(C(=O)n1nnn(-c2c(Cl)cccc2Cl)c1=O)c1cccc(C#N)c1` the value was 60 to 250 nM. Regarding `CCN(C(=O)n1nnn(-c2c(Cl)cccc2Cl)c1=O)c1ccc(C(=O)O)c(OC)c1`, the IC50 was in the range of 60 to 250 nM. For `CCN(C(=O)n1nnn(-c2c(Cl)cccc2Cl)c1=O)c1ccc(C(=O)OCc2ccccc2)c(Cl)c1` the value was 60 to 250 nM. Then `CCN(C(=O)n1nnn(-c2c(Cl)cccc2Cl)c1=O)c1ccc(C(=O)NS(=O)(=O)c2ccccc2)cc1`, with 60 to 250 nM.
